Read-outs that look alike come from different tables or passages of the source.
Tests used:
[1] = Gastrointestinal adverse effect evaluation; assay type: in vivo, human (stable renal transplant recipients); conditions: patients with score > 0
[2] = for Patients within or below the mycophenolic acid AUC0–12h target range: patients with mild gastrointestinal adverse effects (score 1–2); for Cmax / Tmax / AUC(0-t) / AUC / concentration at 12 h / clearance: human, plasma, oral; for AUC: Mycophenolic acid AUC6–12h, estimate of enterohepatic recirculation; for concentration at 12 h: Mycophenolic acid CP(12h); for clearance: Mycophenolic acid clearance; for Mycophenolic acid dose-normalized AUC0–12h: normalized to 1-mg mycophenolic acid dose equivalent
[3] = Enterohepatic circulation of mycophenolic acid; assay type: in vivo, human (stable renal transplant recipients); conditions: all patients
[4] = Tacrolimus whole-blood trough concentration; assay type: in vivo, human (stable renal transplant recipients); conditions: human, oral
[5] = tacrolimus- and mycophenolic acid-treated patients; ELITE-SYMPHONY study; cited from earlier work
[6] = on tacrolimus and enteric-coated mycophenolate sodium
[7] = with tacrolimus and enteric-coated mycophenolate sodium, female (n = 29), steady state
[8] = with tacrolimus and enteric-coated mycophenolate sodium, male (n = 38), steady state

## COc1c(C)c2c(c(O)c1C/C=C(\C)CCC(=O)O)C(=O)OC2 [Mycophenolic acid]
[1]; mycophenolic acid AUC0–12h < 30 mg·h/L (n = 22)
  Gastrointestinal adverse effect score: 1.7 ± 0.8
[1]; mycophenolic acid AUC0–12h > 60 mg h/L (n = 34)
  Gastrointestinal adverse effect score: 3.0 ± 1.7
[1]; mycophenolic acid AUC0–12h within 30–60 mg·h/L (n = 54)
  Gastrointestinal adverse effect score: 2.2 ± 1.1
[2]; cyclosporine and mycophenolate mofetil, patients with no gastrointestinal adverse effects
  Patients within or below the mycophenolic acid AUC0–12h target range of 30–60 mg·h/L: 87%
[2]; cyclosporine
  Patients within or below the mycophenolic acid AUC0–12h target range: 88.5%
[2]; female, 546 mg
  Cmax: 21.7 ± 10.6 µg/mL
  Tmax: 3.16 ± 2.57 h
[2]; female, 591 mg
  Cmax: 6.49 ± 2.3 µg/mL
  Tmax: 2.07 ± 0.11 h
[2]; female, Mycophenolic acid AUC0–12h, with cyclosporine and mycophenolate mofetil, female (n = 14), steady state
  AUC(0-t): 40.1 ± 13.8 µg·h/mL
[2]; female, Mycophenolic acid AUC0–12h, with tacrolimus and enteric-coated mycophenolate sodium, female (n = 29), steady state
  AUC(0-t): 73.4 ± 31.2 µg·h/mL
[2]; female, with cyclosporine and mycophenolate mofetil, female (n = 14)
  AUC: 15.4 ± 5.51 µg·h/mL
[2]; female, with tacrolimus and enteric-coated mycophenolate sodium, female (n = 29)
  AUC: 29.3 ± 24 µg·h/mL
[2]; female, with cyclosporine and mycophenolate mofetil, female (n = 14), steady state
  concentration at 12 h: 2.2 ± 1 µg/mL
[2]; female, with tacrolimus and enteric-coated mycophenolate sodium, female (n = 29), steady state
  concentration at 12 h: 4.3 ± 2.3 µg/mL
[2]; female, African American women receiving tacrolimus
  clearance: 162 mL/min
[2]; with cyclosporine, all patients
  clearance: 342 mL/min
[2]; with tacrolimus, all patients
  clearance: 177 mL/min
[2]; male
  AUC(0-t): 65.5 ± 30.6 µg·h/mL
[2]; male, 587 mg
  Cmax: 19.6 ± 11.2 µg/mL
  Tmax: 2.88 ± 2.06 h
[2]; male, 715 mg
  Cmax: 10.3 ± 6.5 µg/mL
  Tmax: 1.92 ± 1.2 h
[2]; male, Mycophenolic acid AUC0–12h, with cyclosporine and mycophenolate mofetil, male (n = 66), steady state
  AUC(0-t): 41 ± 18.4 µg·h/mL
[2]; male, with cyclosporine and mycophenolate mofetil, male (n = 66)
  AUC: 12.6 ± 7.4 µg·h/mL
[2]; male, with tacrolimus and enteric-coated mycophenolate sodium, male (n = 38)
  AUC: 23.8 ± 13.4 µg·h/mL
[2]; male, with cyclosporine and mycophenolate mofetil, male (n = 66), steady state
  concentration at 12 h: 2.1 ± 1.5 µg/mL
[2]; male, with tacrolimus and enteric-coated mycophenolate sodium, male (n = 38), steady state
  concentration at 12 h: 3.9 ± 2.2 µg/mL
[2]; men receiving cyclosporine and mycophenolate mofetil
  Patients within the target mycophenolic acid AUC0–12h range of 30–60 mg h/L: 54.5%
[2]; men receiving tacrolimus and enteric-coated mycophenolate sodium
  Patients exceeding the target mycophenolic acid AUC0–12h range of 30–60 mg h/L: 50%
[2]; on cyclosporine and mycophenolate mofetil
  Patients achieving target mycophenolic acid AUC0–12h of 30–60 mg·h/L: 56.3%
[2]; [6]
  Patients above the mycophenolic acid AUC0–12h target of 60 mg·h/L: 56.7%
  Patients achieving target mycophenolic acid AUC0–12h of 30–60 mg·h/L: 34.3%
[2]; tacrolimus and enteric-coated mycophenolate sodium, moderate to severe gastrointestinal adverse effects (score ≥ 3)
  Patients exceeding the mycophenolic acid AUC0–12h target range: 50%
[2]; tacrolimus and enteric-coated mycophenolate sodium, patients with no gastrointestinal adverse effects
  Patients above the mycophenolic acid AUC0–12h target range: 78.6%
[2]; tacrolimus-based regimen (22 of 35)
  Lymphopenic patients with mycophenolic acid AUC0–12h > 60 mg·h/L: 62.9%
[2]; tacrolimus
  Patients within or below the mycophenolic acid AUC0–12h target range: 53.8%
[2]; with cyclosporine and mycophenolate mofetil, female (n = 14)
  Mycophenolic acid dose-normalized AUC0–12h: 0.066 ± 0.015 mg·h/L/mg
[2]; with cyclosporine and mycophenolate mofetil, male (n = 66)
  Mycophenolic acid dose-normalized AUC0–12h: 0.058 ± 0.032 mg·h/L/mg
[2]; with tacrolimus and enteric-coated mycophenolate sodium, female (n = 29)
  Mycophenolic acid dose-normalized AUC0–12h: 0.127 ± 0.053 mg·h/L/mg
[2]; with tacrolimus and enteric-coated mycophenolate sodium, male (n = 38)
  Mycophenolic acid dose-normalized AUC0–12h: 0.103 ± 0.045 mg·h/L/mg
[2]; women receiving cyclosporine and mycophenolate mofetil
  Patients within the target mycophenolic acid AUC0–12h range of 30–60 mg h/L: 64.3%
[2]; women receiving tacrolimus and enteric-coated mycophenolate sodium
  Patients exceeding the target mycophenolic acid AUC0–12h range of 30–60 mg h/L: 65.5%
[3]; with cyclosporine
  Enterohepatic circulation, frequency: 45%
[3]; with tacrolimus
  Enterohepatic circulation, frequency: 78%
[3]; with tacrolimus, listed as mycophenolic acid
  Enterohepatic circulation, frequency: More than 75%

## C=CC[C@@H]1/C=C(\C)C[C@H](C)C[C@H](OC)[C@H]2O[C@@](O)(C(=O)C(=O)N3CCCC[C@H]3C(=O)O[C@H](/C(C)=C/[C@@H]3CC[C@@H](O)[C@H](OC)C3)[C@H](C)[C@@H](O)CC1=O)[C@H](C)C[C@@H]2OC [Tacrolimus]
[4]; female
  concentration at 0 h: 0.0071 ± 0.0019 µg/mL
[4]; male
  concentration at 0 h: 0.0073 ± 0.002 µg/mL
[5]
  Diarrhea: 25.3%

## COc1c(C)c2c(c(O[C@@H]3O[C@H](C(=O)O)[C@@H](O)[C@H](O)[C@H]3O)c1C/C=C(\C)CCC(=O)O)C(=O)OC2 [Mycophenolic acid glucuronide]
[2]; tacrolimus group
  Mycophenolic acid glucuronide AUC0–12h, fold higher in women than men: 1.37 fold
[2]; [7]
  Mycophenolic acid glucuronide AUC0–12h: 1068 ± 557 mg·h/L
  Mycophenolic acid glucuronide CP(12h): 75.1 ± 45.2 mg/L
  Mycophenolic acid glucuronide Cmax: 126 ± 60.0 µg/mL
  Mycophenolic acid glucuronide tmax: 3.68 ± 2.45 h
[2]; [8]
  Mycophenolic acid glucuronide AUC0–12h: 780 ± 336 mg·h/L
  Mycophenolic acid glucuronide CP(12h): 54.5 ± 28.0 mg/L
  Mycophenolic acid glucuronide Cmax: 96.7 ± 47.7 µg/mL
  Mycophenolic acid glucuronide tmax: 3.89 ± 1.76 h

Reference: article PMC7375007 (Journal of clinical pharmacology, 2019)
